One assay deals with A. fumigatus. Briefly: Antifungal susceptibility assay (broth microdilution MIC). The settings on record: Aspergillus fumigatus; A. fumigatus strain ATCC MYAA 3626, 35 °C, 48 h, no observable growth. In kind it is cell-based.
The test system of a further assay is A. nidulans. The assay is described as above. In kind it is cell-based. The settings on record: Aspergillus nidulans, 35 °C, 48 h, no observable growth.
In another assay the test system is A. niger. Described as above. In kind it is cell-based. The settings on record: Aspergillus niger, 35 °C, 48 h, no observable growth.
Another assay deals with A. flavus. The assay is described as above. In kind it is cell-based. Conditions: Aspergillus flavus, 35 °C, 48 h, no observable growth.
Assay [1] addresses CaAHAS (C. albicans AHAS). On the set-up: method as in earlier work. Conditions: shown for comparison; ref 13 (Garcia et al.); cited from earlier work.

In the case of `CCOc1nc(F)cc2nc(S(=O)(=O)Nc3c(Cl)cccc3C(=O)OC)nn12` [CSM], the MIC against A. fumigatus, with A. nidulans, in the assay on A. niger and in the assay with A. flavus was more than 100 µg/mL in each case. Moreover, the Ki in assay [1] is 4.6 ± 1.2 nM.
Regarding `COc1cc(OC)n2nc(NS(=O)(=O)c3c(C(F)(F)F)ccnc3OC)nc2n1` [PYS], the minimal inhibitory concentration (MIC) against A. fumigatus, against A. nidulans, in the assay with A. niger and against A. flavus was more than 100 µg/mL each time. For the same compound, the Ki in assay [1] was 212 ± 18 nM.
Take `COC(=O)c1csc(C)c1S(=O)(=O)NC(=O)n1nc(OC)n(C)c1=O` [TCM]: the minimum inhibitory concentration (MIC) against A. fumigatus, in the assay on A. nidulans, against A. niger and against A. flavus was more than 100 µg/mL throughout. Moreover, in assay [1], the Ki was 28000 nM.

(Values after PMC8548585, “Triazolopyrimidine herbicides are potent inhibitors of Aspergillus fumigatus acetohydroxyacid synthase and potential antifungal drug leads” (Scientific Reports, 2021).)
